How the values were obtained:
[1] = test system: high-fat diet mouse model of type 2 diabetes; test: glucose tolerance test; assay type: in vivo; details: HFD+L-Tyr vs HFD; 16 hours fasting, glucose 2 g per 1 kg i.p., 30-120 minutes
Method: Twenty-seven C57BL/6 male mice (3-week old) were acclimated to the breeding condition for 1 week. […] Blood glucose was measured every week.
D-glucose was dissolved in 1×PBS to prepare 40% D-glucose solution. Blood glucose of a mouse, which has been subjected to fasting for 16 hours, was measured, and, for having intraperitoneal injection of glucose in an amount of 2 g per 1 kg bodyweight, the animal was intraperitoneally injected with the glucose solution according to the following Formula (1). Glucose injection amount(μl)=Bodyweight(g)×5 Formula (1)
For example, for a mouse with bodyweight of 45 g, 225 μl of 40% glucose solution were injected. After the intraperitoneal injection of glucose solution, blood glucose was measured at time points of 30, 60, 90 and 120 minutes.

IL-6 = IL-6 gene expression in kidney tissues (quantitative real-time PCR), renal ischemia and reperfusion; assay type: in vivo, mouse; details: L-tyrosine 100 mg/kg oral once a day for 4 days, 24 hours after ischemia and reperfusion
Method: (§1) C57BL/6 male mouse (23 to 25 g, KOATECH, South Korea) was allowed to have free access to diets and water in sterile breeding room with constant temperature and humidity. The animals were divided into 3 test groups, i.e., 1) Control group (Sham), 2) Renal ischemia having treatment with prepared solvent and induced reperfusion group (CMC+IR), and 3) Renal ischemia having treatment with L-tyrosine and induced reperfusion group (L-Tyr+IR).
L-Tyrosine (100 mg/kg) was suspended in 0.5% CMC (carboxymethyl cellulose). The animal was orally administered, once a day for 4 days, with L-tyrosine or the prepared solvent CMC. Thirty minutes after the oral administration on Day 4, renal ischemia was caused. Specifically, the animal abdomen was cut and renal pedicles at both sides were clamped using a Muller atraumatic vascular clamp to cause renal ischemia. After 25 minutes of blood ischemia, the clamp was removed followed by reperfusion. The control group (Sham) received the same operational procedures as above except the ischemia using clamp. […]
According to Trizol method, total RNA was extracted from kidney tissues, and cDNA was synthesized by using Revert Aid Reverse Transcription System (ThermoFisher). Quantitative PCR was carried out with CFX Connect Real-Time PCR system (Bio-Rad) by using iQ SYBR Green Super mix (Bio-Rad). […]

[2] = test system: acute renal failure caused by kidney ischemia or reperfusion injury; test: plasma creatinine (Jaffe method), renal ischemia and reperfusion; assay type: in vivo, mouse; details: L-tyrosine 100 mg/kg oral for 4 days, 24 hours after ischemia and reperfusion
Method: C57BL/6 male mouse (23 to 25 g, KOATECH, South Korea) was allowed to have free access to diets and water in sterile breeding room with constant temperature and humidity. The animals were divided into 3 test groups, i.e., 1) Control group (Sham), 2) Renal ischemia having treatment with prepared solvent and induced reperfusion group (CMC+IR), and 3) Renal ischemia having treatment with L-tyrosine and induced reperfusion group (L-Tyr+IR). L-Tyrosine (100 mg/kg) was suspended in 0.5% CMC (carboxymethyl cellulose). The animal was orally administered, once a day for 4 days, with L-tyrosine or the prepared solvent CMC. Thirty minutes after the oral administration on Day 4, renal ischemia was caused. Specifically, the animal abdomen was cut and renal pedicles at both sides were clamped using a Muller atraumatic vascular clamp to cause renal ischemia. […] Blood collected in the above was centrifuged for 15 minutes at 3,000 rpm to separate plasma, and blood creatinine was measured by using Jaffe method. With regard to Jaffe method, based on a difference between the absorbance measured at a wavelength of 510 nm after the reaction of plasma sample with picric acid and the absorbance measured after completing the reaction using 60% acetic acid, the amount of creatinine was calculated and it was expressed in unit of mg/dl.

[3] = test system: mouse model of chronic immobilization stress; test: object recognition test (ORT); assay type: in vivo; details: D-Tyr-containing diet (181 mg D-Tyr/kg AIN-93G), chronic stress 14 days
Method: Twenty-eight C57BL/6 male mice (7-week old) were divided into two groups, each group provided for 1 week with a normal diet or D-tyrosine (D-Tyr)-containing diet (181 mg D-Tyr/kg AIN-93G).
Once the animals become 8-week old, they were applied with chronic immobilization stress (CIS) under light condition of 200 lux, 2 hours per day for 2 weeks. The animals were divided into the control group (CTL), D-Tyr diet control group (CTL+D-Tyr), chronic stress group (STR), and D-Tyr diet chronic stress group (STR+D-Tyr), in which each group consists of 7 animals.
Upon the completion of the CIS for 2 weeks, a cognitive function test was carried out. To compare the cognitive function between the group provided with D-Tyr-containing diet over the entire test period including habituation period and normal feed diet group, an object recognition test (ORT) and an object location recognition test (OLT) for testing long-term memory skills were carried out.
ORT: The test consists of three stages, i.e., habituation, familiarization, and test. The animals were habituated in a test box, 10 minutes per day for 2 days. At the familiarization stage on Day 3, they were allowed to explore two identical objects for 10 minutes. […] The object recognition function index (i.e., discrimination index: DI) was calculated based on the following formula (3). […]

Cu/Zn SOD = test: activity of Cu/Zn SOD, renal ischemia and reperfusion; assay type: in vivo, mouse; details: L-tyrosine 100 mg/kg oral for 4 days, IR
Method: as §1
L-Tyrosine (100 mg/kg) was suspended in 0.5% CMC (carboxymethyl cellulose). The animal was orally administered, once a day for 4 days, with L-tyrosine or the prepared solvent CMC. Thirty minutes after the oral administration on Day 4, renal ischemia was caused. Specifically, the animal abdomen was cut and renal pedicles at both sides were clamped using a Muller atraumatic vascular clamp to cause renal ischemia. After 25 minutes of blood ischemia, the clamp was removed followed by reperfusion. The control group (Sham) received the same operational procedures as above except the ischemia using clamp. Twenty-four hours after the reperfusion, the test animal was sacrificed, blood was collected from the heart, and the tissues were harvested.

| Structure (SMILES) | blood glucose, glucose tolerance test [1] | gene expression of IL-6 in kidney tissues (IL-6) | creatinine in plasma [2] | ORT (object recognition function index, DI) [3] | activity of Cu/Zn SOD (Cu/Zn SOD) |
| --- | --- | --- | --- | --- | --- |
| N[C@@H](Cc1ccc(O)cc1)C(=O)O [L-tyrosine] | statistically significant decrease in blood glucose amount | suppressed | suppressed |  |  |
| N[C@@H](Cc1ccc(O)cc1)C(=O)O [tyrosine] |  |  |  | no statistically significant difference | again recovered |
